Reference: patent publication US6262073A, “Pharmaceutical methods of use of 5-substituted and 5,5 disubstituted-3,4-dihydroxy-2(5H)-furanones” (Oxis International Inc., priority 2000, dated 2001)

How the values were obtained:
Format in all cases: biochemical
[1] = biological target: T1, 5-Lipoxygenase (crude enzyme preparation from rat basophilic leukemia cells, RBL-1) (Rattus norvegicus, UniProt P12527); assay: 5-Lipoxygenase screen (5-LO), 5-HETE by RIA; conditions: for inhibition at 30 µM: read-out: 5-LO percent inhibition; for inhibition at 1 µM: read-out: Percent inhibition of 5-LO, test conc. 1 μM (Table II)
T1 construct: crude enzyme preparation from rat basophilic leukemia cells (RBL-1); endogenous in cells; host or cells: rat basophilic leukemia cells (RBL-1)
T1 sequence (P12527 1-673): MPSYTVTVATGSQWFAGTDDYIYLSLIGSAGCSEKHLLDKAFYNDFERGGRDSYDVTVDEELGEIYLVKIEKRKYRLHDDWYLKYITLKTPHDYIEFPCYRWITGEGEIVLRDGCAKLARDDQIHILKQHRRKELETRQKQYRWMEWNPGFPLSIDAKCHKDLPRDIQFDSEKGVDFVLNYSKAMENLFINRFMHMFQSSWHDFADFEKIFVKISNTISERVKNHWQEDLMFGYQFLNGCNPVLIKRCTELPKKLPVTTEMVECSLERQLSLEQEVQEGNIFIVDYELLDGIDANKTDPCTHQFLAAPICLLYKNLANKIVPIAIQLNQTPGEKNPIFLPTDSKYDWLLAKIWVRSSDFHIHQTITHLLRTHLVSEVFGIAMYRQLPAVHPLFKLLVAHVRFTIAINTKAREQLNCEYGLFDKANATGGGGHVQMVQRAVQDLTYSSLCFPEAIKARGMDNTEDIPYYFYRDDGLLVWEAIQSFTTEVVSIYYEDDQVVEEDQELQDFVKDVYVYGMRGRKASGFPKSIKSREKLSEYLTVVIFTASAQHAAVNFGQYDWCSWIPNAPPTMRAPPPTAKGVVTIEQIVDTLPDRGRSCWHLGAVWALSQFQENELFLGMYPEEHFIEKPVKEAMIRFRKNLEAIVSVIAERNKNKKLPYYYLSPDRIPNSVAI
Method: (§1) The compounds of the invention were screened for their anti-inflammatory activity using a series of in vitro tests the details of which are given below. The activity of various compounds against 5-lipoxygenase, cycloxygenase-1, cycloxygenase-2 and lipid peroxidase was evaluated. Results of the screening procedures are included in TABLE I, and the activity against 5-lipoxygenase at a test concentration of 1 μM in Table II.
5-Lipoxygenase catalyzes the oxidative metabolism of arachidonic acid to […] (5-HETE), the initial reaction leading to the formation of the leukotrienes. Briefly, the testing procedure utilizes a crude enzyme preparation from rat basophilic leukemia cells (RBL-1) according to the methods of T. Shimuzu et al. Pro. […] Test compounds are pre-incubated with the enzyme preparation for 5 minutes at room temperature and the reaction is initiated by the addition of arachidonic acid. Following an 8 minute incubation at room temperature, the reaction is terminated by the addition of citric acid and concentrations of 5-HETE are determined by RIA. Compounds are screened at 30 μM.

[2] = biological target: T2, Cyclooxygenase-1 (cyclooxygenase from ram seminal vesicles) (Ovis aries, UniProt P05979); assay: Cyclooxygenase-1 screen (COX-1); conditions: 300 μM
T2 construct: cyclooxygenase from ram seminal vesicles; from tissue; host or cells: ram seminal vesicles
T2 sequence (P05979 25-600): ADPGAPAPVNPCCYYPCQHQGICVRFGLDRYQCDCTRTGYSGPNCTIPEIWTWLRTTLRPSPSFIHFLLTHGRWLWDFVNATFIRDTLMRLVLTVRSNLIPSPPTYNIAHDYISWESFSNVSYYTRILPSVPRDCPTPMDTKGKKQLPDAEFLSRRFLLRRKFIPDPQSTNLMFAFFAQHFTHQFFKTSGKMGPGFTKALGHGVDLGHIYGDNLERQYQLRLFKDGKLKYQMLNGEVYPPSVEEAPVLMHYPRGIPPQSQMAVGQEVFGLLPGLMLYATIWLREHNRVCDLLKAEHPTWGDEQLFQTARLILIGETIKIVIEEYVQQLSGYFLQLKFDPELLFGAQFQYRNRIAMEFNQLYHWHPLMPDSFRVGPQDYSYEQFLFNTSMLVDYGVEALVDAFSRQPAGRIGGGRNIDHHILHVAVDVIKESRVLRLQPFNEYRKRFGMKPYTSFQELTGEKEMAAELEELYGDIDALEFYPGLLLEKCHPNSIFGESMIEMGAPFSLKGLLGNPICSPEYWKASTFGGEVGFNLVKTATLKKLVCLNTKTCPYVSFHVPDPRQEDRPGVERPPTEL
Method: as §1
Cyclooxygenase-1 is involved in the formation of prostaglandins and thromboxane via the oxidative metabolism of arachidonic acid. Briefly, cyclooxygenase from ram seminal vesicles is incubated with arachidonic acid (100 μm) for 2 minutes at 37° C. in the presence or absence of test compounds according to the methods of A. T. Evans et al., Biochem. Pharm. 36:2035-2037(1987) and R. Boopathy et al., Biochem J. 239:371-377 (1968). The assay is terminated by the addition of trichioroacetic acid and cyclooxygenase activity is determined by reading the absorbance at 530 nm. […]

[3] = biological target: T3, Cyclooxygenase-2 (prostaglandin H synthetase-2) from sheep placenta (Ovis aries, UniProt P79208); assay: Cyclooxygenase-2 screen (COX-2); conditions: read-out: COX-2 percent inhibition
T3 construct: cyclooxygenase-2 from sheep placenta; from tissue; host or cells: sheep placenta
T3 sequence (P79208 17-603): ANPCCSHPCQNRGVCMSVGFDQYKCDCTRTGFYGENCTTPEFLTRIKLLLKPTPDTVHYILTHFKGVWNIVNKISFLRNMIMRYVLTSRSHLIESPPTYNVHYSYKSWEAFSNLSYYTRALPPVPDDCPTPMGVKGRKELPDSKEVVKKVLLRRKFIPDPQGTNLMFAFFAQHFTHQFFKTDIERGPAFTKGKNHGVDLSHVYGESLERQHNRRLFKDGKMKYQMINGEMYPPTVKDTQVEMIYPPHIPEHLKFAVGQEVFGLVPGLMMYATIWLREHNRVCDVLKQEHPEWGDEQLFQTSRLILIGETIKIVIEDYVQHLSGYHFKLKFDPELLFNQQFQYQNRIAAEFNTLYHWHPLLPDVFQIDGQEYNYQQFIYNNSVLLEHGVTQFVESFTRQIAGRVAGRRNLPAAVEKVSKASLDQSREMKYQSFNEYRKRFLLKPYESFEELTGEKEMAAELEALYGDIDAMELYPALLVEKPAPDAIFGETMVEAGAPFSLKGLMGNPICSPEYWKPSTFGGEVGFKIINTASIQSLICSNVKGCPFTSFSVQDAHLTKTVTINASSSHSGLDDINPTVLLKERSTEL
Method: as §1
Cyclooxygenase-2, also known as prostaglandin H synthetase-2, catalyzes the rate- limiting step in the synthesis of inflammatory prostaglandins. In this reaction cyclooxygenase-2 catalyzes the oxygenation of unesterified precursors to form cyclic endoperoxide derivatives, including prostaglandin H. Briefly, cyclooxygenase-2 from sheep placenta, 14 μg/assay tube, is incubated with arachidonic acid (500 μM) for 1.5 minutes at 27° C. in the absence or presence of test compounds according to the methods of A. T. Evans, et al., Biochem Pharm. […] Res. Comm. […] Compounds are screened at 300 μM.

[4] = system: Lipid peroxidation (rat liver microsomes); assay: Lipid peroxidation screen (LPO), CCl4-induced, liver microsomes; conditions: for LPO percent inhibition: 300 μM
Method: as §1
Lipid peroxidation is a consequence of various stimuli, including reactive free radicals. Polyunsaturated fatty acids associated with plasma membranes are degraded due to enzymatic induction by reactive agents such as CCl4, leading to cellular damage. Briefly, microsomes are prepared from rat livers and the protein concentration is determined according to the method of D. Mansuy et al., Biochem. Biophys. Res. Comm. 135:1015-1021(1986). A reaction mixture consisting of 2 mg of the microsomal preparation, an NADPH generating system, 20 mM CCl4 and test compound are incubated for 12 minutes at 37° C. The reaction is terminated by the addition of a mixture of thiobarbituric acid and trichloroacetic acid. The absorbance is read at 535 nm and is proportional to the concentration of malondialdehyde. Compounds are screened at 300 μM.

| IC50 ([4]; reference compound under screen conditions) [µM] | Structure (SMILES) | inhibition at 30 µM [1] [%] | inhibition at 1 µM [1] [%] | COX-1 percent inhibition [2] [%] | inhibition at 300 µM [3] [%] | LPO percent inhibition [4] [%] |
| --- | --- | --- | --- | --- | --- | --- |
|  | O=C1OC(CCSc2cccc3ccccc23)C(O)=C1O (stereo not drawn) [Example 25, 3,4-Dihydroxy-5-[2-(naphthyl-1-thio)ethyl]-2(5H)-furanone] | 102 | 56 | 6 | 19 | 74 |
|  | CCC/C=C\Cc1ccccc1C#CCCC1OC(=O)C(O)=C1O (stereo not drawn) [Example 29] | 81 | 56 | 55 | 26 | 72 |
|  | O=C1OC(CCC#Cc2ccccc2CSc2ccccc2)C(O)=C1O (stereo not drawn) [Example 30, 3,4-Dihydroxy-5-[(4-(2-(phenylthio)methyl)phenyl)-3-butynyl]-2(5H)-furanone] | 100 | 70 | 26 | 16 | 62 |
|  | CC1(c2ccccc2)OC(=O)C(O)=C1O (stereo not drawn) [Example 1, 3,4-Dihydroxy-5-methyl-5-phenyl-2(5H)-furanone] | 58 |  | -12 | 3 | 63 |
|  | CCCCCSCc1ccccc1C#CCCC1OC(=O)C(O)=C1O (stereo not drawn) [Example 34, 3,4-Dihydroxy-5-[(4-(2-(1-pentylthio)methyl)phenyl)-3-butynyl]-2(5H)-furanone] | 92 |  | 67 | 43 | 63 |
|  | O=C1OC(CCN2C(=O)c3cccc4cccc(c34)C2=O)C(O)=C1O (stereo not drawn) [Example 19, 3,4-Dihydroxy-5-[2-(1,8-naphthalimide)-N-ethyl]-2(5H)-furanone] | 86 |  | 9 | 2 | 68 |
|  | O=C1OC(CCSc2ccc3ccccc3c2)C(O)=C1O (stereo not drawn) [Example 26, 3,4-Dihydroxy-5-[2-(naphthyl-2-thio)ethyl]-2(5H)-furanone] | 101 | 54 | 12 | 12 | 77 |
|  | O=C1OC(CCOc2ccccc2Cc2ccccc2)C(O)=C1O (stereo not drawn) [Example 21, 3,4-Dihydroxy-5-[2-(diphenylmethane-2-oxy)ethyl]-2(5H)-furanone] | 101 | 62 | 12 | 10 | 68 |
|  | Cc1ccccc1C#CCCC1OC(=O)C(O)=C1O (stereo not drawn) [Example 28, 3,4-Dihydroxy-5-[(4-(2-methyl)phenyl)-3-butynyl]-2(5H)-furanone] | 58 |  | 4 | 15 | 61 |
|  | CCCSCc1ccccc1C#CCCC1OC(=O)C(O)=C1O (stereo not drawn) [Example 33, 3,4-Dihydroxy-5-[(4-(2-(propylthio)methyl)phenyl)-3-butynyl]-2(5H)-furanone] | 84 |  | 37 | 20 | 74 |
|  | O=C1OC(CCOc2ccc(-c3ccccc3)cc2)C(O)=C1O (stereo not drawn) [Example 22, 5-[2-((1,1'-Biphenyl)-4-oxy)ethyl]-3,4-dihydroxy-2(5H)-furanone] | 99 | 55 | 18 | 10 | 74 |
|  | CCCS(=O)(=O)Cc1ccccc1C#CCCC1OC(=O)C(O)=C1O (stereo not drawn) [Example 35, 3,4-Dihydroxy-5-[(4-(2-(propylsulfonyl)methyl)phenyl)-3-butynyl]-2(5H)-furanone] | 30 |  | 25 | 13 | 60 |
|  | CCCCNS(=O)(=O)c1ccccc1C#CCCC1OC(=O)C(O)=C1O (stereo not drawn) [Example 31] | 81 |  | 37 | 23 | 73 |
|  | O=C1OC(CCN2c3cccc4cccc(c34)S2(=O)=O)C(O)=C1O (stereo not drawn) [Example 20, 3,4-Dihydroxy-5-[2-(1,8-naphthosultam)-N-ethyl]-2(5H)-furanone] | 91 | 38 | -15 | 13 | 61 |
| 280 | Cc1c(C)c2c(c(C)c1O)CCC(C)(CCCC(C)CCCC(C)CCCC(C)C)O2 (stereo not drawn) [alpha-tocopherol, reference compound] |  |  |  |  |  |
|  | O=C1OC(CCOc2ccc3ccccc3n2)C(O)=C1O (stereo not drawn) [Example 23, 3,4-Dihydroxy-5-[2-(quinoline-2-oxy)ethyl]-2(5H)-furanone] | 93 |  |  | -2 |  |
